Assay results from US9493539B2, “Peptides associated with HLA-DR MHC class II molecules involved in autoimmune diseases” (LONDON HEALTH SCIENCES CENTRE RESEARCH INC., priority 2003, dated 2016).
Square brackets hold non-standard residues; d marks the D form. Ends that are not written are not given here. Cit = NC(=O)NCCC[C@H](N)C(=O)O

Assays:
[1] = test system: draining lymph node cells; test: IFN-γ production by ELISA after in vitro challenge with immunizing peptide; format: cell-based, mouse; conditions: DR4-IE tg mice immunized with the peptide
Method: (§1) DR4 tg mice were immunized intradermally at the interior side of both hind legs with 100 μl of peptide (1 μg/μl) emulsified in CFA (Difco Laboratories, Detroit, Mich.) in a 1:1 volume ratio. After 10 days, mice were sacrificed and their draining lymph nodes were removed for in vitro proliferation and cytokine assays.
(§2) Cell suspensions were prepared from the draining lymph nodes and cultured in 96-well plates at a concentration of 4×10^5 cells/well in the presence or absence of peptide antigen for 4 days. Anti-DR antibody (BD PharMingen, Mississauga, ON) was added to some cultures (1 μg/ml) to confirm DR restricted T cell responses as described previously (Andersson E C, Hansen B E, Jacobsen H, Madsen L S, Andersen C B, Engberg J, Rothbard J B, McDevitt G S, Malmstrom V, Holmdahl R, Svejgaard A, Fugger L. 1998. Definition of MHC and T cell receptor contacts in the HLA-DR4 restricted immunodominant epitope in type II collagen and characterization of collagen-induced arthritis in HLA-DR4 and human CD4 transgenic mice. Proc. Natl. Acad. Sci. USA. 95:7574). Culture supernatants were removed after 78 hrs to test IFN-γ production by ELISA (BD PharMingen, Mississauga, ON) as described previously (Hill, J. A., Wang, D., Jevnikar, A. M., Cairns, E., Bell, D. A. 2002. The relationship between predicted peptide-MHC class II affinity and T cell activation in a HLA-DRβ1*0401 MHC class II mouse model. Arthritis Res. 5:R40). Cytokine production was measured in duplicate and represents the average antigen specific cytokine production (cytokine production in control samples+2 SD were subtracted from the peptide specific cytokine production)±SD. Eighteen hours before culture termination, 1 μCi of [^3H] thymidine (ICN Biomedicals, Montreal, PQ) was added to each well to assess T cell proliferation. Proliferation experiments were conducted in triplicate and results are presented as average proliferation in cpm±SD or stimulation index (cpm of experimental sample/cpm of control sample)±SEM.

[2] = test system: draining lymph node cells; test: T cell proliferation recall response ([3H] thymidine) after peptide immunization of DR4-IE tg mice; format: cell-based, mouse; conditions: for T cell proliferative response: DR4-IE tg mice immunized with the peptide, 10 days later cells challenged in vitro with same peptide; for proliferative response in presence of anti-DR antibody: immunizing peptide plus anti-DR antibody
Method: as §1, §2

[3] = test system: shared epitope negative (DRB1*0301, *0701, *0802, *1101, *1302); test: Peptide-binding (competition) assay to purified MHC class II; set-up: species or system human
Method: (§3) Peptide binding affinity to purified HLA-DRB1*0101, *0401, *0404, *0301, *0701, *0802, *1101, and *1302 molecules was determined relative to radio-labelled peptide probes as described previously (Southwood S, Sidney J, Kondo A, del Guercio M F, Appella E, Hoffman S, Kubo R T, Chesnut R W, Grey H M, Sette A. 1998. Several common HLA-DR types share largely overlapping peptide binding repertoires. J. Immunol. 160:3363). The nM concentration of unlabelled vimentin peptide necessary for 50% inhibition of the labelled peptide to the purified HLA-DRB1 molecules (IC50) was used as an approximation of the affinity of interaction ([…]). Results are expressed as the inverse of the IC50 values measured in nM.

HLA-DRB1*0404 = HLA-DRB1*0404 (Homo sapiens, UniProt P01903+P01911, A100R/A169T/F76Y/I96L/K127E/L162R/M171V/N62H/P40V/Q125Y/R42H/S133A/S149N/S66Y/V209L/W38E); test: as above; conditions: DRB1*0404, shared epitope positive
Method: as §3

HLA-DRB1*0401 = HLA-DRB1*0401 (Homo sapiens, UniProt P01903+P01911, A100K/A169T/F76Y/I96L/K127E/L162R/M171V/N62H/P40V/Q125Y/R42H/S133A/S149N/S66Y/V115G/V209L/W38E); test: as above; conditions: DRB1*0401, shared epitope positive
Method: as §3

HLA-DRB1*0101 = HLA-DRB1*0101 (Homo sapiens, UniProt P01903+P01911, A100R/D57E/F55L/F60I/F76Y/I96L/L162R/M171V/P40L/Q125E/R42F/V115G/Y59C); test: as above; conditions: DRB1*0101, shared epitope positive
Method: as §3

Substance	IFN-γ production [1]	T cell proliferative response [2]	proliferative response in presence of anti-DR antibody [2]	change of peptide affinity on conversion of arginine to citrulline ([3]; vs Vim 65-77)	relative affinity for purified MHC (HLA-DRB1*0404)	relative affinity for purified MHC (HLA-DRB1*0401)	relative affinity for purified MHC (HLA-DRB1*0101)	relative affinity for purified MHC [3]	activation of T cells primed by Vim R70Cit ([2]; Vim R70Cit immunized mice, challenged with the unmodified peptide, 10 μg/ml)
AGWLACitRSVRYPI (AGWLA[Cit]RSVRYPI) [P4Cit, altered human aggrecan peptide 280-292]	induced	induced	inhibited						
AGWLADRSVRYPI (Human) [P4D, human aggrecan peptide 280-292]	accompanied by IFN-γ production	strong proliferative response	inhibited						
AGWLARRSVRYPI (Human) [P4R, altered human aggrecan peptide 280-292]	did not induce	did not induce							
SAVRACitSSVPGVR (SAVRA[Cit]SSVPGVR) [Vim R70Cit, altered human vimentin peptide 65-77]	accompanied by IFN-γ production	strong proliferative response	could also be inhibited	did not increase peptide affinity	strikingly high affinity	strikingly high affinity	strikingly high affinity		
SAVRARSSVPGVR (Human) [Vim 65-77, human vimentin peptide 65-77, unmodified]	did not induce T cell activation	did not induce T cell activation			low to intermediate affinity	low to intermediate affinity	low to intermediate affinity	low to intermediate affinity	could not be activated
